# Assay results as given in PubChem BioAssay AID1963983 (Molecular Pharmacology Branch, DTP, NCI, 2024).
# System: 186277-243-T-J2-PDC multi-cell spheroid viability
# Assay: Anticancer human tumor 186277-243-T-J2-PDC patient-derived colon adenocarcinoma cell line growth inhibition [PI3K]
# Conditions: for IC50: curve of first compound; for viability, T/C: stronger effect = lower value
# Outline: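 Multi-cell spheroids combine tumor cells with HUVEC and human MSCs, treated with targeted agents alone or with inavolisib, alpelisib, duvelisib or copanlisib. Concentrations fall in half-log steps from at or near clinical Cmax, or from 10 microM where Cmax is unknown; viability read-out.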
# [1] = second compound 0.00316 µM, first compound 0.0316 µM
# [2] = second compound 0.00316 µM, first compound 0.1 µM
# [3] = second compound 0.00316 µM, first compound 0.316 µM
# [4] = second compound 0.00316 µM, first compound 1 µM
# [5] = second compound 0.00316 µM, first compound 3.16 µM
# [6] = second compound 0.00316 µM, first compound 10 µM
# [7] = second compound 0.01 µM, first compound 0.0316 µM
# [8] = second compound 0.01 µM, first compound 0.1 µM
# [9] = second compound 0.01 µM, first compound 0.316 µM
# [10] = second compound 0.01 µM, first compound 1 µM
# [11] = second compound 0.01 µM, first compound 3.16 µM
# [12] = second compound 0.01 µM, first compound 10 µM
# [13] = second compound 0.0316 µM, first compound 0.0316 µM
# [14] = second compound 0.0316 µM, first compound 0.1 µM
# [15] = second compound 0.0316 µM, first compound 0.316 µM
# [16] = second compound 0.0316 µM, first compound 1 µM
# [17] = second compound 0.0316 µM, first compound 3.16 µM
# [18] = second compound 0.0316 µM, first compound 10 µM
# [19] = second compound 0.1 µM, first compound 0.0316 µM
# [20] = second compound 0.1 µM, first compound 0.1 µM
# [21] = second compound 0.1 µM, first compound 0.316 µM
# [22] = second compound 0.1 µM, first compound 1 µM
# [23] = second compound 0.1 µM, first compound 3.16 µM
# [24] = second compound 0.1 µM, first compound 10 µM
# [25] = second compound 0.316 µM, first compound 0.0316 µM
# [26] = second compound 0.316 µM, first compound 0.1 µM
# [27] = second compound 0.316 µM, first compound 0.316 µM
# [28] = second compound 0.316 µM, first compound 1 µM
# [29] = second compound 0.316 µM, first compound 3.16 µM
# [30] = second compound 0.316 µM, first compound 10 µM
# [31] = second compound 1 µM, first compound 0.0316 µM
# [32] = second compound 1 µM, first compound 0.1 µM
# [33] = second compound 1 µM, first compound 0.316 µM
# [34] = second compound 1 µM, first compound 1 µM
# [35] = second compound 1 µM, first compound 3.16 µM
# [36] = second compound 1 µM, first compound 10 µM
# 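Also: spheroids exposed to compounds for seven days before viability reading.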
# 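For viability, T/C in this document: 100% = DMSO vehicle control viability.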
smiles,measurement,setting,value
Cn1cnc2c(F)c(Nc3ccc(Br)cc3Cl)c(C(=O)NOCCO)cc21 + COc1c(OCCCN2CCOCC2)ccc2c3n(c(=NC(=O)c4cnc(N)nc4)nc12)CCN3,IC50,second compound 0.00316 µM,73.9 nM
same,IC50,second compound 0.01 µM,29.9 nM
same,IC50,second compound 0.0316 µM,< 9.49 nM
same,IC50,second compound 0.1 µM,< 9.49 nM
same,IC50,second compound 0.316 µM,< 9.49 nM
same,IC50,second compound 1 µM,< 9.49 nM
same,"viability, T/C","second compound 0.00316 µM, first compound 0.00949 µM",91.7%
same,"viability, T/C","second compound 0.00316 µM, first compound 0.03 µM",74.6%
same,"viability, T/C","second compound 0.00316 µM, first compound 0.0949 µM",38.3%
same,"viability, T/C","second compound 0.00316 µM, first compound 0.3 µM",28.9%
same,"viability, T/C","second compound 0.00316 µM, first compound 0.949 µM",13.1%
same,"viability, T/C","second compound 0.00316 µM, first compound 3 µM",7.3%
same,"viability, T/C","second compound 0.01 µM, first compound 0.00949 µM",81.6%
same,"viability, T/C","second compound 0.01 µM, first compound 0.03 µM",50%
same,"viability, T/C","second compound 0.01 µM, first compound 0.0949 µM",24.9%
same,"viability, T/C","second compound 0.01 µM, first compound 0.3 µM",11.7%
same,"viability, T/C","second compound 0.01 µM, first compound 0.949 µM",8.98%
same,"viability, T/C","second compound 0.01 µM, first compound 3 µM",5.03%
same,"viability, T/C","second compound 0.0316 µM, first compound 0.00949 µM",28.9%
same,"viability, T/C","second compound 0.0316 µM, first compound 0.03 µM",20.9%
same,"viability, T/C","second compound 0.0316 µM, first compound 0.0949 µM",13.5%
same,"viability, T/C","second compound 0.0316 µM, first compound 0.3 µM",8.43%
same,"viability, T/C","second compound 0.0316 µM, first compound 0.949 µM",3.94%
same,"viability, T/C","second compound 0.0316 µM, first compound 3 µM",2.23%
same,"viability, T/C","second compound 0.1 µM, first compound 0.00949 µM",14.6%
same,"viability, T/C","second compound 0.1 µM, first compound 0.03 µM",7.23%
same,"viability, T/C","second compound 0.1 µM, first compound 0.0949 µM",5.32%
same,"viability, T/C","second compound 0.1 µM, first compound 0.3 µM",2.22%
same,"viability, T/C","second compound 0.1 µM, first compound 0.949 µM",0.6%
same,"viability, T/C","second compound 0.1 µM, first compound 3 µM",0.24%
same,"viability, T/C","second compound 0.316 µM, first compound 0.00949 µM",2.44%
same,"viability, T/C","second compound 0.316 µM, first compound 0.03 µM",1.09%
same,"viability, T/C","second compound 0.316 µM, first compound 0.0949 µM",1.66%
same,"viability, T/C","second compound 0.316 µM, first compound 0.3 µM",0.37%
same,"viability, T/C","second compound 0.316 µM, first compound 0.949 µM",0.45%
same,"viability, T/C","second compound 0.316 µM, first compound 3 µM",0.11%
same,"viability, T/C","second compound 1 µM, first compound 0.00949 µM",0.41%
same,"viability, T/C","second compound 1 µM, first compound 0.03 µM",0.28%
same,"viability, T/C","second compound 1 µM, first compound 0.0949 µM",0.32%
same,"viability, T/C","second compound 1 µM, first compound 0.3 µM",0.14%
same,"viability, T/C","second compound 1 µM, first compound 0.949 µM",0.15%
same,"viability, T/C","second compound 1 µM, first compound 3 µM",0.18%
CC(C)NCC(C(=O)N1CCN(c2ncnc3c2C(C)CC3O)CC1)c1ccc(Cl)cc1 (stereo not drawn) + CC(Nc1ccc2c(c1)OCCn1cc(N3C(=O)OCC3C(F)F)nc1-2)C(N)=O,IC50,second compound 0.00316 µM,1120 nM
same,IC50,second compound 0.01 µM,774 nM
same,IC50,second compound 0.0316 µM,648 nM
same,IC50,second compound 0.1 µM,355 nM
same,IC50,second compound 0.316 µM,134 nM
same,IC50,second compound 1 µM,< 31.6 nM
same,"viability, T/C",[1],92.9%
same,"viability, T/C",[2],77.1%
same,"viability, T/C",[3],64.1%
same,"viability, T/C",[4],52%
same,"viability, T/C",[5],39.6%
same,"viability, T/C",[6],21.4%
same,"viability, T/C",[7],95.3%
same,"viability, T/C",[8],87.2%
same,"viability, T/C",[9],62.2%
same,"viability, T/C",[10],47%
same,"viability, T/C",[11],29.8%
same,"viability, T/C",[12],18.9%
same,"viability, T/C",[13],104%
same,"viability, T/C",[14],97%
same,"viability, T/C",[15],71.4%
same,"viability, T/C",[16],37.1%
same,"viability, T/C",[17],19%
same,"viability, T/C",[18],15%
same,"viability, T/C",[19],100%
same,"viability, T/C",[20],86.2%
same,"viability, T/C",[21],51%
same,"viability, T/C",[22],27.8%
same,"viability, T/C",[23],17.1%
same,"viability, T/C",[24],12.9%
same,"viability, T/C",[25],75.9%
same,"viability, T/C",[26],53.6%
same,"viability, T/C",[27],37.6%
same,"viability, T/C",[28],24%
same,"viability, T/C",[29],11.8%
same,"viability, T/C",[30],8.85%
same,"viability, T/C",[31],40.1%
same,"viability, T/C",[32],33.3%
same,"viability, T/C",[33],24.5%
same,"viability, T/C",[34],19.4%
same,"viability, T/C",[35],17.1%
same,"viability, T/C",[36],6.4%
CC1(C)CCC(Nc2ncc(C(F)(F)F)c(-c3c[nH]c4c(P(C)(C)=O)c(C#N)ccc34)n2)CN1 (stereo not drawn) + CC(Nc1ccc2c(c1)OCCn1cc(N3C(=O)OCC3C(F)F)nc1-2)C(N)=O,IC50,second compound 0.00316 µM,3600 nM
same,IC50,second compound 0.01 µM,3860 nM
same,IC50,second compound 0.0316 µM,3520 nM
same,IC50,second compound 0.1 µM,1650 nM
same,IC50,second compound 0.316 µM,56.9 nM
same,IC50,second compound 1 µM,< 31.6 nM
same,"viability, T/C",[1],71.6%
same,"viability, T/C",[2],45.1%
same,"viability, T/C",[3],52.8%
same,"viability, T/C",[4],56.5%
same,"viability, T/C",[5],56.6%
same,"viability, T/C",[6],1.03%
same,"viability, T/C",[7],69.1%
same,"viability, T/C",[8],52.9%
same,"viability, T/C",[9],55%
same,"viability, T/C",[10],58.9%
same,"viability, T/C",[11],66.3%
same,"viability, T/C",[12],0.23%
same,"viability, T/C",[13],78%
same,"viability, T/C",[14],54.3%
same,"viability, T/C",[15],51.7%
same,"viability, T/C",[16],57.8%
same,"viability, T/C",[17],55.3%
same,"viability, T/C",[18],0.17%
same,"viability, T/C",[19],72.7%
same,"viability, T/C",[20],54.3%
same,"viability, T/C",[21],60.4%
same,"viability, T/C",[22],55.6%
same,"viability, T/C",[23],43.6%
same,"viability, T/C",[24],0.46%
same,"viability, T/C",[25],54.2%
same,"viability, T/C",[26],49.7%
same,"viability, T/C",[27],33.4%
same,"viability, T/C",[28],41%
same,"viability, T/C",[29],22.6%
same,"viability, T/C",[30],0.44%
same,"viability, T/C",[31],34.5%
same,"viability, T/C",[32],29.1%
same,"viability, T/C",[33],22.6%
same,"viability, T/C",[34],26.4%
same,"viability, T/C",[35],12.2%
same,"viability, T/C",[36],1.38%
CCN1CCN(Cc2ccc(Nc3ncc(F)c(-c4cc(F)c5nc(C)n(C(C)C)c5c4)n3)nc2)CC1 + CC(Nc1ccc2c(c1)OCCn1cc(N3C(=O)OCC3C(F)F)nc1-2)C(N)=O,IC50,second compound 0.00316 µM,> 1000 nM
same,IC50,second compound 0.01 µM,> 1000 nM
same,IC50,second compound 0.0316 µM,> 1000 nM
same,IC50,second compound 0.1 µM,> 1000 nM
same,IC50,second compound 0.316 µM,40.3 nM
same,IC50,second compound 1 µM,< 3.16 nM
same,"viability, T/C","second compound 0.00316 µM, first compound 0.00316 µM",99.4%
same,"viability, T/C","second compound 0.00316 µM, first compound 0.01 µM",94.3%
same,"viability, T/C",[1],102%
same,"viability, T/C",[2],143%
same,"viability, T/C",[3],165%
same,"viability, T/C",[4],128%
same,"viability, T/C","second compound 0.01 µM, first compound 0.00316 µM",124%
same,"viability, T/C","second compound 0.01 µM, first compound 0.01 µM",85%
same,"viability, T/C",[7],106%
same,"viability, T/C",[8],132%
same,"viability, T/C",[9],142%
same,"viability, T/C",[10],133%
same,"viability, T/C","second compound 0.0316 µM, first compound 0.00316 µM",98.9%
same,"viability, T/C","second compound 0.0316 µM, first compound 0.01 µM",93.3%
same,"viability, T/C",[13],107%
same,"viability, T/C",[14],113%
same,"viability, T/C",[15],124%
same,"viability, T/C",[16],103%
same,"viability, T/C","second compound 0.1 µM, first compound 0.00316 µM",105%
same,"viability, T/C","second compound 0.1 µM, first compound 0.01 µM",95.1%
same,"viability, T/C",[19],83%
same,"viability, T/C",[20],81.8%
same,"viability, T/C",[21],75.9%
same,"viability, T/C",[22],62.5%
same,"viability, T/C","second compound 0.316 µM, first compound 0.00316 µM",67.6%
same,"viability, T/C","second compound 0.316 µM, first compound 0.01 µM",74.8%
same,"viability, T/C",[25],52.5%
same,"viability, T/C",[26],42.8%
same,"viability, T/C",[27],42.5%
same,"viability, T/C",[28],36.2%
same,"viability, T/C","second compound 1 µM, first compound 0.00316 µM",37.3%
same,"viability, T/C","second compound 1 µM, first compound 0.01 µM",37.8%
same,"viability, T/C",[31],28.3%
same,"viability, T/C",[32],28%
same,"viability, T/C",[33],31%
same,"viability, T/C",[34],24.5%
